Literature values, collected in Sander's compilation of Henry's law constants (doi:10.1021/je049693f).
Where “and” joins values, the source holds several entries; their conditions need not be identical. Equal values may be shown once.

Experiment: Henry solubility constant Hcp at 298.15 K (mol/(m3 Pa))
Details: reference: Shen and Wania (2005); cited value

Row | SMILES | Henry solubility constant Hcp
1 | ClC1=C(Cl)[C@]2(Cl)[C@@H]3[C@H]4C[C@H]([C@@H]5O[C@H]45)[C@@H]3[C@@]1(Cl)C2(Cl)Cl [endrin] | 1.6 and 0.91
2 | ClC1=C(Cl)[C@]2(Cl)[C@@H]3[C@@H](Cl)[C@@H](Cl)C[C@@H]3[C@@]1(Cl)C2(Cl)Cl [cis-chlordane] | 0.17 and 0.18
3 | ClC(Cl)=C(c1ccc(Cl)cc1)c1ccc(Cl)cc1 [1,1-dichloro-2,2-bis-(4-chlorophenyl)-ethene] | 0.24
4 | Clc1ccc(C(c2ccc(Cl)cc2)C(Cl)Cl)cc1 [1,1-dichloro-2,2-bis-(4-chlorophenyl)-ethane] | 1.5 and 2
5 | ClC1=C(Cl)C2(Cl)C3C4OC4C(Cl)C3C1(Cl)C2(Cl)Cl (stereo not given) [heptachlorepoxide] | 0.48 and 0.59
6 | ClC1=C(Cl)C2(Cl)C3C(Cl)C=CC3C1(Cl)C2(Cl)Cl (stereo not given) [heptachlor] | 0.033 and 0.026
7 | Clc1ccc(C(c2ccc(Cl)cc2)C(Cl)(Cl)Cl)cc1 [1,1,1-trichloro-2,2-bis-(4-chlorophenyl)-ethane] | 0.91
8 | ClC1=C(Cl)[C@]2(Cl)[C@H]3[C@H](Cl)[C@@H](Cl)C[C@H]3[C@@]1(Cl)C2(Cl)Cl [trans-chlordane] | 0.17 and 0.15
9 | ClC1=C(Cl)[C@]2(Cl)[C@@H]3[C@@H]4C[C@@H]([C@H]5O[C@@H]45)[C@@H]3[C@@]1(Cl)C2(Cl)Cl [dieldrin] | 1 and 0.91
10 | ClC1=C(Cl)[C@]2(Cl)[C@H]3[C@H]([C@@H]4C=C[C@H]3C4)[C@@]1(Cl)C2(Cl)Cl [aldrin] | 0.067 and 0.043
